25 substances from the OligoGym collection can be followed below.

HELM strings list units from the 5' end as sugar, base in round brackets, then linkage (d deoxyribose, r ribose, m 2'-O-methyl, p phosphodiester). Strings are as the collection lists them; they lack the last nucleoside at the 3' end of the tested compound. [moe] = 2'-O-(2-methoxyethyl) (MOE); [sp] = phosphorothioate linkage; [m5C] = 5-methylcytosine

This series deals with ATXN2. Put plainly: mouse, dose not given. Conditions: ASO.

In turn, “RNA1{[moe](A)[sp].[moe](A)p.[moe](A)p.[moe](G)p.[moe](A)p.d([m5C])[sp].d(T)[sp].d(T)[sp].d(T)[sp].d(G)[sp].d(A)[sp].d(A)[sp].d(A)[sp].d(T)[sp].d([m5C])[sp].[moe](T)p.[moe]([m5C])p.[moe](A)[sp].[moe]([m5C])}$$$$ (last 3' nucleoside missing)” returned a 3 h FOB score of 1 score 0-7. For “RNA1{[moe](A)[sp].[moe](T)p.[moe](A)p.[moe](A)p.[moe](A)p.d([m5C])[sp].d(T)[sp].d(G)[sp].d(T)[sp].d(T)[sp].d(T)[sp].d(A)[sp].d([m5C])[sp].d(A)[sp].d(T)[sp].[moe]([m5C])p.[moe](T)p.[moe]([m5C])[sp].[moe]([m5C])}$$$$ (last 3' nucleoside missing)”, the 3 h FOB score amounted to 4 score 0-7.

“RNA1{[moe](T)[sp].[moe]([m5C])p.[moe](T)p.[moe]([m5C])p.[moe](T)[sp].d(A)[sp].d(T)[sp].d(T)[sp].d(T)[sp].d([m5C])[sp].d(T)[sp].d(T)[sp].d(T)[sp].[moe](G)p.[moe](T)p.[moe]([m5C])[sp].[moe]([m5C])}$$$$ (last 3' nucleoside missing)” registered a 3 h FOB score of 1 score 0-7. With “RNA1{[moe](T)[sp].[moe](A)p.[moe]([m5C])p.[moe](T)p.[moe](T)p.[moe](T)p.d(T)[sp].d([m5C])[sp].d(T)[sp].d([m5C])[sp].d(A)[sp].d(T)[sp].d(G)[sp].d(T)[sp].d(G)[sp].d([m5C])[sp].[moe](G)p.[moe](G)[sp].[moe]([m5C])}$$$$ (last 3' nucleoside missing)” the figure was 5.5 score 0-7; with “RNA1{[moe](T)[sp].[moe](G)p.[moe](T)p.[moe](A)p.[moe]([m5C])p.[moe](T)p.d(T)[sp].d([m5C])[sp].d(A)[sp].d([m5C])[sp].d(A)[sp].d(T)[sp].d(T)[sp].d(T)[sp].d(G)[sp].d(G)[sp].[moe](A)p.[moe](G)[sp].[moe]([m5C])}$$$$ (last 3' nucleoside missing)”, 2.5 score 0-7; with “RNA1{[moe]([m5C])[sp].[moe](T)p.[moe]([m5C])p.[moe]([m5C])p.[moe](A)p.d(T)[sp].d(T)[sp].d(A)[sp].d(T)[sp].d(T)[sp].d(T)[sp].d([m5C])[sp].d(T)[sp].d(T)[sp].d([m5C])[sp].[moe](A)p.[moe]([m5C])p.[moe](G)[sp].[moe](T)}$$$$ (last 3' nucleoside missing)”, 1 score 0-7.

In the case of “RNA1{[moe](T)[sp].[moe](T)p.[moe]([m5C])p.[moe](T)p.[moe](G)p.d(T)[sp].d(A)[sp].d([m5C])[sp].d(T)[sp].d(T)[sp].d(T)[sp].d(T)[sp].d([m5C])[sp].d(T)[sp].d([m5C])[sp].[moe](A)p.[moe](T)p.[moe](G)[sp].[moe](T)}$$$$ (last 3' nucleoside missing)”, the 3 h FOB score stood at 4.5 score 0-7. Next, “RNA1{[moe](T)[sp].[moe](G)p.[moe](A)p.[moe](G)p.[moe](T)p.d(T)[sp].d([m5C])[sp].d(A)[sp].d([m5C])[sp].d([m5C])[sp].d(T)[sp].d(G)[sp].d([m5C])[sp].d(A)[sp].d(T)[sp].[moe]([m5C])p.[moe]([m5C])p.[moe]([m5C])[sp].[moe](A)}$$$$ (last 3' nucleoside missing)”: 5.75 score 0-7. In turn, “RNA1{[moe](T)[sp].[moe](A)p.[moe](G)p.[moe](T)p.[moe](G)p.d(T)[sp].d(T)[sp].d(T)[sp].d(G)[sp].d(G)[sp].d(G)[sp].d(A)[sp].d(T)[sp].d(G)[sp].d([m5C])[sp].[moe](T)p.[moe](T)p.[moe]([m5C])[sp].[moe](A)}$$$$ (last 3' nucleoside missing)” showed a 3 h FOB score of 6.25 score 0-7. With “RNA1{[moe](A)[sp].[moe](A)p.[moe]([m5C])p.[moe]([m5C])p.[moe](A)p.d(T)[sp].d(G)[sp].d([m5C])[sp].d([m5C])[sp].d(T)[sp].d([m5C])[sp].d(T)[sp].d(T)[sp].d(T)[sp].d(T)[sp].[moe](T)p.[moe](T)p.[moe]([m5C])[sp].[moe](T)}$$$$ (last 3' nucleoside missing)” the figure was 0 score 0-7; with “RNA1{[moe](A)[sp].[moe](T)p.[moe](A)p.[moe]([m5C])p.[moe](T)p.d([m5C])[sp].d(T)[sp].d([m5C])[sp].d([m5C])[sp].d(A)[sp].d(T)[sp].d(T)[sp].d(A)[sp].d(T)[sp].d(T)[sp].[moe](T)p.[moe]([m5C])p.[moe](T)[sp].[moe](T)}$$$$ (last 3' nucleoside missing)”, 0 score 0-7; with “RNA1{[moe](A)[sp].[moe]([m5C])p.[moe](G)p.[moe]([m5C])p.[moe](G)p.d(G)[sp].d(T)[sp].d(G)[sp].d(A)[sp].d(A)[sp].d(T)[sp].d(T)[sp].d([m5C])[sp].d(T)[sp].d(G)[sp].[moe](T)p.[moe]([m5C])p.[moe](T)[sp].[moe]([m5C])}$$$$ (last 3' nucleoside missing)”, 1 score 0-7. Substance “RNA1{[moe](G)[sp].[moe](G)p.[moe](A)p.[moe](A)p.[moe](T)p.d([m5C])[sp].d(T)[sp].d(T)[sp].d(A)[sp].d(T)[sp].d(T)[sp].d(A)[sp].d(A)[sp].d(G)[sp].d([m5C])[sp].[moe](A)p.[moe](A)p.[moe](G)[sp].[moe](T)}$$$$ (last 3' nucleoside missing)” showed a 3 h FOB score of 4.5 score 0-7. In the case of “RNA1{[moe]([m5C])[sp].[moe]([m5C])p.[moe](T)p.[moe](A)p.[moe](T)p.d([m5C])[sp].d(A)[sp].d(T)[sp].d([m5C])[sp].d(A)[sp].d(T)[sp].d(T)[sp].d(T)[sp].d(T)[sp].d([m5C])[sp].[moe]([m5C])p.[moe](A)p.[moe](G)[sp].[moe](G)}$$$$ (last 3' nucleoside missing)”, the 3 h FOB score came to 5.5 score 0-7. With “RNA1{[moe](A)[sp].[moe](G)p.[moe]([m5C])p.[moe](A)p.[moe]([m5C])p.d(A)[sp].d(T)[sp].d(G)[sp].d(A)[sp].d(T)[sp].d(T)[sp].d(G)[sp].d(T)[sp].d(A)[sp].d(A)[sp].[moe](A)p.[moe]([m5C])p.[moe](T)[sp].[moe](A)}$$$$ (last 3' nucleoside missing)” the figure was 6 score 0-7; with “RNA1{[moe](T)[sp].[moe](A)p.[moe](A)p.[moe](G)p.[moe](A)p.d([m5C])[sp].d(T)[sp].d(T)[sp].d(T)[sp].d(T)[sp].d(T)[sp].d(A)[sp].d(T)[sp].d(G)[sp].d(T)[sp].[moe](T)p.[moe](G)p.[moe]([m5C])[sp].[moe](T)}$$$$ (last 3' nucleoside missing)”, 1 score 0-7. Consider “RNA1{[moe](T)[sp].[moe](T)p.[moe](G)p.[moe](T)p.[moe](T)p.d([m5C])[sp].d(T)[sp].d(T)[sp].d([m5C])[sp].d([m5C])[sp].d(A)[sp].d(A)[sp].d(T)[sp].d(T)[sp].d(T)[sp].[moe]([m5C])p.[moe](A)p.[moe](G)[sp].[moe](A)}$$$$ (last 3' nucleoside missing)”, for which the 3 h FOB score came to 0 score 0-7. With “RNA1{[moe](T)[sp].[moe](G)p.[moe]([m5C])p.[moe]([m5C])p.[moe](T)[sp].d([m5C])[sp].d(T)[sp].d(A)[sp].d([m5C])[sp].d(T)[sp].d([m5C])[sp].d(G)[sp].d(G)[sp].[moe](T)p.[moe]([m5C])p.[moe]([m5C])[sp].[moe](A)}$$$$ (last 3' nucleoside missing)” the figure was 4 score 0-7; with “RNA1{[moe](T)[sp].[moe](G)p.[moe](G)p.[moe](A)p.[moe](T)[sp].d(T)[sp].d([m5C])[sp].d(T)[sp].d(G)[sp].d(T)[sp].d(A)[sp].d([m5C])[sp].d(T)[sp].[moe](T)p.[moe](T)p.[moe](T)[sp].[moe]([m5C])}$$$$ (last 3' nucleoside missing)”, 5.25 score 0-7; with “RNA1{[moe](T)[sp].[moe](T)p.[moe]([m5C])p.[moe](T)p.[moe](G)[sp].d(T)[sp].d(A)[sp].d([m5C])[sp].d(T)[sp].d(T)[sp].d(T)[sp].d(T)[sp].d([m5C])[sp].[moe](T)p.[moe]([m5C])p.[moe](A)[sp].[moe](T)}$$$$ (last 3' nucleoside missing)”, 2.5 score 0-7. Next, “RNA1{[moe](A)[sp].[moe](T)p.[moe](G)p.[moe]([m5C])p.[moe](T)p.d(G)[sp].d(G)[sp].d(T)[sp].d(T)[sp].d([m5C])[sp].d([m5C])[sp].d(T)[sp].d(T)[sp].d(A)[sp].d([m5C])[sp].[moe](A)p.[moe](A)p.[moe](T)[sp].[moe](T)}$$$$ (last 3' nucleoside missing)”: 0 score 0-7; “RNA1{[moe]([m5C])[sp].[moe](T)p.[moe](G)p.[moe]([m5C])p.d(T)[sp].d(A)[sp].d(A)[sp].d([m5C])[sp].d(T)[sp].d(G)[sp].d(G)[sp].d(T)[sp].d(T)[sp].d(T)[sp].[moe](G)p.[moe]([m5C])p.[moe]([m5C])p.[moe]([m5C])[sp].[moe](T)}$$$$ (last 3' nucleoside missing)”: 1 score 0-7. Next, “RNA1{[moe](T)[sp].[moe](A)p.[moe]([m5C])p.[moe](T)p.[moe](G)p.d(T)[sp].d(T)[sp].d(T)[sp].d([m5C])[sp].d(G)[sp].d(A)[sp].d([m5C])[sp].d([m5C])[sp].d(T)[sp].d([m5C])[sp].[moe](T)p.[moe](G)p.[moe](A)[sp].[moe](A)}$$$$ (last 3' nucleoside missing)”: 3 score 0-7; “RNA1{[moe](T)[sp].[moe](G)p.[moe]([m5C])p.[moe](T)p.[moe](T)p.d(A)[sp].d(T)[sp].d(T)[sp].d(A)[sp].d(T)[sp].d(T)[sp].d([m5C])[sp].d(T)[sp].d([m5C])[sp].d(A)[sp].[moe]([m5C])p.[moe](A)p.[moe](T)[sp].[moe](A)}$$$$ (last 3' nucleoside missing)”: 0 score 0-7. “RNA1{[moe](T)[sp].[moe](A)p.[moe]([m5C])p.[moe](A)p.[moe]([m5C])p.d(A)[sp].d(G)[sp].d(T)[sp].d(T)[sp].d(T)[sp].d([m5C])[sp].d(A)[sp].d([m5C])[sp].d(T)[sp].d(A)[sp].[moe](G)p.[moe](G)p.[moe](T)[sp].[moe](T)}$$$$ (last 3' nucleoside missing)” came in with a 3 h FOB score of 1 score 0-7.
